Reference: US20250296955A1, “PIN1 TARGETING COMPOUNDS AND DEGRADERS AND METHODS THEREOF” (The Regents of the University of California, priority 2024, published 2025)

Tests used:
[1] = biological target: T1, Pin1 (Homo sapiens, UniProt Q13526); assay: DELFIA displacement assay (displacement of biotinylated D-peptide from 6His-Pin1); type: binding; set-up: human Pin1 (residues 1-163); made in house; host or cells: E. coli BL21 (DE3) gold pLysS
Text: (§1) Important to the success of structure activity relations studies, robust biochemical, biophysical, and cell-based assays were implemented that enabled rapid and iterative evaluations of test Pin1 targeting agents. First, the DELFIA (Dissociation-enhanced lanthanide fluorescent immunoassay) assay platform was used to derive a robust heterogeneous assay to monitor the ability of test agents to displace the binding between Pin1 and the D-Peptide (Table 1), which was obtained in a biotinylated form (FIG. 10). […] Second, for an orthogonal biophysical assay denaturation thermal shift measurements were used. Pin1 was incubated with vehicle control (buffer with 1% DMSO), or test agents at protein: ligand ratio of 1:2 (20 μM protein-40 μM compound) for 10 min at 10° C. in the presence of the fluorescent dye SYPRO Orange. The samples were gradually exposed to increasing temperature (linear gradient from 10° C. to 95° C.), causing the protein to unfold. This unfolding allowed the fluorescent dye to bind to the protein's exposed hydrophobic residues, resulting in an increase in fluorescence. The thermal shift assay measures the protein's melting temperature (Tm), which is the temperature at which the protein denatures by 50%. Ligands can affect a protein target to thermal denaturation, which could manifest in a positive or negative shift in the protein denaturation temperature (ΔTm) (Bai N, Roder H, Dickson A, & Karanicolas J (2019) Scientific Reports 9; and Kranz J K & Schalk-Hihi C (2011) Fragment-Based Drug Design: Tools, Practical Approaches, and Examples 493:277-298). Using these two assays, a series of commercially available Pin1 inhibitors were profiled (Table 1). The non-covalent agent D-peptide resulted only moderately active, with an IC50 value of ˜3 μM that closely resembled the dissociation constant for this agent determined via isothermal titration calorimetry, and the ˜ 3 μM IC50 value as reported by a fluorescence polarization assay (Pinch B J, et al. (2020) Nat Chem Biol 16(9):979-987). […] (Table 1) was observed.
For the reported covalent agents such as sulfopin (Dubiella C, et al. (2021) Nat Chem Biol 17(9):954-963), BJP-07-017-3 (Pinch B J, et al. (2020) Nat Chem Biol 16(9):979-987), or KPT-6566 (Campaner E, et al. (2017) Nat Commun 8:15772), a 6-h pre-incubation period was included in the DELFIA assay to allow the covalent reaction to take place. For those agents, IC50 values that fell in the low nanomolar range were observed, consistent with what was reported previously for those compounds. […] To make those determinations in a broader panel of cancer cell lines three pancreatic cancer cell lines, BxPC3, MIA-PaCa-2, and PANC-1, the breast cancer cell line MDA-MB-231, the prostate cancer cell line PC3, and the non-small cell lung cancer cell line A549 were chosen. Each cell line represents various states of KRAS activating mutations (for example BxPC3 is wt-KRAS, while MIAPaCa2 carries the KRAS(G12C) mutation, and the PANC-1 the KRAS(G12D) (Miquel M, Zhang S, & Pilarsky C (2021) Front Cell Dev Biol 9:748631), A549 is KRAS(G12S) (Wang H, et al. (2019) EBioMedicine 49:106-117), MDA-MB-231 is KRAS(G13D) (Kim R K, et al. (2015) Exp Mol Med 47(1):e137), PC3 is wt-KRAS (Bouali S, et al. (2009) Oncol Rep 21(3):731-735). Pin1 protein levels in these cell lines were established using a specific Pin1 antibody in western blot analyses (FIG. 1A). The data confirmed that all these selected human cancer cell lines expressed a significant level of Pin1 (FIG. 1A).
Each well of 96-well streptavidin-coated plates (PerkinElmer) was incubated with 100 μL of 200 nM biotinylated D-peptide for 2 h and washed 3 times with a wash solution (PerkinElmer). Subsequently, a mixture containing Pin1, and a serial dilution of the test compounds were pre-incubated for 6 h. Eu-N1-labeled anti-6x-His antibody (PerkinElmer, 1:2000) was then added to this mixture and further incubated in the biotinylated D-peptide-bound plates for another 2 h. […]

[2] = biological target: T1, Pin1; assay: Denaturation thermal shift assay (SYPRO Orange); type: binding; set-up: human Pin1 (residues 1-163); made in house; host or cells: E. coli BL21 (DE3) gold pLysS; settings: for share of first denaturation transition: percentage in brackets after first ΔTm; for share of second denaturation transition: percentage in brackets after second ΔTm
Text: as §1
Thermal shift assays for Pin1 alone and in the presence of the inhibitors were obtained with a BioRad CFX Connect Real-Time PCR Detection System. Each data point was collected in quadruplicate. Each sample was prepared using buffer 50 mM Phosphate pH 7.5, 150 mM NaCl, 1% DMSO. Protein: ligand ratio used was 1:2 (20 μM protein-40 μM compound), and SYPRO Orange was used. Incubation of the Pin1 protein with the compounds was performed at 10° C. for 10 min. Samples were then heated from 10 to 95° C. with heating increments of 0.05° C., over 30 min. Fluorescence intensity was measured within the excitation/emission ranges 470-505/540-700 nm.

[3] = biological target: T1, Pin1; assay: Pin1 degradation in a panel of human cancer cell lines (western blot); type: cell-based; settings: all cell lines, exposed to 5 μM, 24 h (FIG. 4); read-out: Dmax (the maximal level of degradation)
Experimental: In these studies, it was evident that both agents were very effective in degrading Pin1 in all tested human cancer cell lines with DC50 values (the concentration at which 50% degradation was observed)˜500 nM and Dmax (the maximal level of degradation) close to 100% with all cell lines when exposed to 5 μM of either agent (FIG. 4).
(§2) BxPC3, MIA PaCa-2, PANC-1, MDA-MB-231, and PC3 were obtained from the American Type Culture Collection (ATCC) and A549 NucLight Red cells were purchased from Essen Bioscience. BxPC3 and PC3 cells were cultured in RPMI (Corning) while PANC-1 cells were cultured in DMEM (Corning). MIA PaCa-2 cells were also cultured in DMEM, but with the addition of 2.5% horse serum. A549 NucLight cells were cultured in a Ham's F-12 nutriend mixture with GlutaMAX-1 (Gibco). All of the culture media were supplemented with 10% FBS. […]
(§3) At the end of the treatments, cells were lysed with a lysis buffer containing 20 mM Tris, pH 7.4, 120 mM NaCl, 1% Triton X-100, 0.5% sodium deoxycholate, 0.1% SDS, 1% IGEPAL, 5 mM EDTA, protease inhibitor cocktail and PhosSTOP (Sigma-Aldrich). […] Protein concentrations were determined using the Pierce BCA Protein Assay Kit (ThermoFisher Scientific) according to the manufacturer's instruction. […]

[4] = biological target: T1, Pin1; settings: Pu W, et al. (2018); read-out: dissociation constant by isothermal titration calorimetric measurements; cited from earlier work
[5] = biological target: T1, Pin1; assay: Pin1 degradation in BxPC3 cells (western blot); type: cell-based; settings: Bx-PC3 cell line, 25 μM, 24 h (FIG. 1B)
Text: Next, each cell line was exposed to a relatively high concentration of each of the Pin1 inhibitors from Table 1 and measured their ability to cause Pin1 degradation in the Bx-PC3 cell line under the experimental conditions reported in FIG. 1B. […] It was hypothesized that this observed degradation in the series correlated with the increased sensitivity of Pin1 to thermal degradation induced by BJP-07-017-3 in vitro (Table 1).
as §2, §3

[6] = Table 5, only one transition given
[7] = Table 4, two transitions observed, likely incomplete complex formation

T1 sequence (Q13526 whole entry, the tested form may be a part): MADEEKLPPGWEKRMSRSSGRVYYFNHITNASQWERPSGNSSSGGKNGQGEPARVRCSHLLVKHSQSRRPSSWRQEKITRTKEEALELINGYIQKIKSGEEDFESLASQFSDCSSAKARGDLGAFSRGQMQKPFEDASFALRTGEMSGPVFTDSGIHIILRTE

O=C(CCl)N[C@@H](Cc1c[nH]c2ccccc12)C(=O)N1CCCC[C@H]1C(=O)NCCc1c[nH]c2cc(Cl)cc(Cl)c12 [164A3]
IC50 ([1]; Table 5): 1180 ± 45 nM
ΔTm (° C.) [2, 6]: −13.68 ± 0.20 °C

NC(=O)[C@H](Cc1c[nH]c2ccccc12)NC(=O)[C@@H]1C[C@H]2CCCC[C@@H]2N1C(=O)[C@@H]1Cc2c([nH]c3ccccc23)CN1C(=O)CCl [164A4]
IC50 ([1]; Table 4, ± SD from duplicates): 35 ± 5 nM
ΔTm (° C.) ([2]; Table 4, single transition, ± SE of four replicates): −20.46 ± 0.04 °C

O=C(NCCc1c[nH]c2cc(Cl)cc(Cl)c12)[C@@H]1CCCCN1C(=O)[C@@H]1Cc2c([nH]c3ccccc23)CN1C(=O)CCl [164A5]
IC50 ([1]; Table 4, ± SD from duplicates): 433 ± 65 nM
share of first denaturation transition ([2]; Table 4): 70%
share of second denaturation transition ([2]; Table 4): 30%
ΔTm (° C.), first of two denaturation transitions [2, 7]: +0.66 ± 0.28 °C
ΔTm (° C.) [2, 6]: +0.66 ± 0.28 °C

NC(=O)[C@H](Cc1c[nH]c2ccc(F)cc12)NC(=O)[C@@H]1CCCCN1C(=O)[C@@H]1Cc2c([nH]c3ccccc23)CN1C(=O)CCl [164A10]
Dmax [3]: ~100%
ΔTm ([2]; running text and figure legends): −8.95 °C

CC1(C)[C@H]2C[C@@H](C(=O)N[C@@H](Cc3c[nH]c4ccccc34)C(N)=O)N(C(=O)[C@@H]3Cc4c([nH]c5ccccc45)CN3C(=O)CCl)[C@H]21 [164A12]
IC50 ([1]; Table 4, ± SD from duplicates): 44 ± 1 nM
share of first denaturation transition ([2]; Table 4): 30%
share of second denaturation transition ([2]; Table 4): 70%
ΔTm (° C.), first of two denaturation transitions [2, 7]: +1.03 ± 0.13 °C
ΔTm (° C.), second printed of two denaturation transitions [2, 7]: −19.18 ± 0.07 °C

Nc1nc(OCc2ccc(CNC(=O)C(F)(F)F)cc2)c2nc[nH]c2n1 [API-1]
Kd [4]: 2900 nM

CC(C)(C)CN(C(=O)CCl)C1CCS(=O)(=O)C1 (stereo not drawn) [Sulfopin]
Pin1 degradation in cell [5]: significant Pin1 degradation
